Patent publication US10932480B2, “Animal feed additive containing diurnosid and/or cestrumosid” (priority 2016, dated 2021)

System: broilers
Assay: Field test in broilers, diurnoside/cestrumoside plus vitamin D3 metabolites (Example 1)
Assay type: in vivo
Settings: in combination with diurnoside or cestrumoside versus control groups with calcitriol or calcifediol alone, FIG. 1
Description: In a commercial boiler feeding operation, five stalls each with approximate 43,000 animals were compared with regard to the incidence of osteochondrosis/dyschondroplasia in a field test. All the stalls were fed using conventional boiler fattening feed, distributed under the brand name GeflügelmastKorn® (Company: Garant Tiernahrung [Garant Animal Nutrition]), wherein no further additives were used in stall K1 (controls).
For stall K2 (control group calcitriol), a feed additive containing 20 ppm calcitriol in an amount of 150 ppm (based on feed with 88% dry solids) was mixed into the broiler fattening feed.
For stall K2 (control group calcifediol), a feed additive containing 200 ppm calcifediol in an amount of 150 ppm (based on feed with 88% dry solids) was mixed into the broiler fattening feed.
For stall V1 (experimental group with diurnoside plus calcitriol), the feed additive according to the invention, containing 100 ppm diurnoside and 10 ppm calcitriol was mixed into the boiler fattening feed in an amount of 150 ppm (based on feed with 88% dry solids).
For the stall V2 (experimental group with cestrumoside plus calcifediol), the feed additive according to the invention, containing 20 ppm cestrumoside and 100 ppm calcifediol in an amount of 150 ppm (based on feed with 88% dry solids) was mixed into the broiler fattening feed. […]

Row | SMILES | effective doses for calcitriol and calcifediol
1 | C=C1CC[C@H](O)C/C1=C/C=C1\CCC[C@]2(C)[C@@H]([C@H](C)CCCC(C)(C)O)CC[C@@H]12 [calcifediol] | reduced by one-half
2 | C=C1/C(=C\C=C2/CCC[C@]3(C)[C@@H]([C@H](C)CCCC(C)(C)O)CC[C@@H]23)C[C@@H](O)C[C@@H]1O [calcitriol] | reduced by one-half
